As a reminder, the pKa is the pH at which an ionisable group is half protonated. Lower therefore signals a group that gives up its proton readily.

A short description of the series: pKa value. The format is physicochemical.
Molecule `COc1ccc(S(=O)(=O)Nc2cccc([N+](=O)[O-])c2)cc1` registered a pKa of 8.44. With `O=S(=O)(Nc1ccccc1)c1ccccc1` [PHENYL(PHENYLSULFONYL)AMINE] the figure was 9.1; with `Cc1ccc(NS(=O)(=O)c2ccc(Cl)cc2)cc1`, 8.78. As to `O=[N+]([O-])c1cccc(S(=O)(=O)Nc2ccccc2)c1`, the pKa came out at 7.5.

Regarding `Cc1ccc(NS(=O)(=O)c2ccc(F)cc2)cc1`, the pKa was found to be 9.23. Under `O=S(=O)(Nc1ccc(F)cc1)c1ccc(Cl)cc1` stands 8.41; under `Cc1ccc(NS(=O)(=O)c2ccccc2)cc1`, 9.34. Under `Nc1ccc(NS(=O)(=O)c2ccccc2)cc1` stands 10.3; under `Cc1ccc(S(=O)(=O)Nc2ccc(Cl)cc2)cc1`, 9.02.

`O=[N+]([O-])c1ccc(S(=O)(=O)Nc2ccc(F)cc2)cc1`: the pKa stood at 6.45. Under `Nc1ccc(NS(=O)(=O)c2ccc(Cl)cc2)cc1` stands 9.76; under `O=[N+]([O-])c1cccc(NS(=O)(=O)c2ccc(F)cc2)c1`, 7.85; under `O=S(=O)(Nc1ccc(F)cc1)c1ccc(Br)cc1`, 8.38. With `O=[N+]([O-])c1ccc(S(=O)(=O)Nc2cccc([N+](=O)[O-])c2)cc1` the figure was 5.51; with `Cc1ccc(NS(=O)(=O)c2ccc(C)cc2)cc1`, 9.65.

For the molecule `Cc1cccc(S(=O)(=O)Nc2ccc(N)cc2)c1`, the pKa stood at 10.4.

On to `Cc1ccc(NS(=O)(=O)c2ccc([N+](=O)[O-])cc2)cc1`, for which the pKa came out at 6.78. Under `O=S(=O)(Nc1ccccc1)c1cccc(Br)c1` stands 8.25; under `O=S(=O)(Nc1ccc(Cl)cc1)c1ccc(Cl)cc1`, 8.3. In turn, `O=S(=O)(Nc1ccc(F)cc1)c1ccccc1` displayed a pKa of 8.85.

`Cc1ccc(S(=O)(=O)Nc2ccc(N)cc2)cc1`: the pKa turned out to be 10.5. With `O=S(=O)(Nc1ccccc1)c1ccc(Cl)cc1` the figure was 8.47.

`O=[N+]([O-])c1cccc(S(=O)(=O)Nc2ccc(F)cc2)c1`: the pKa came to 7.27. Under `Cc1ccc(S(=O)(=O)Nc2ccc(F)cc2)cc1` stands 9.2; under `O=[N+]([O-])c1cccc(S(=O)(=O)Nc2ccc(Cl)cc2)c1`, 7.19; under `O=[N+]([O-])c1cccc(NS(=O)(=O)c2ccc(Cl)cc2)c1`, 7.51.

Regarding `COc1ccc(S(=O)(=O)Nc2ccc(Cl)cc2)cc1`, the pKa amounted to 9.19. With `COc1ccc(S(=O)(=O)Nc2ccc(F)cc2)cc1` the figure was 9.32; with `COc1ccc(S(=O)(=O)Nc2ccccc2)cc1`, 9.42; with `O=[N+]([O-])c1cccc(NS(=O)(=O)c2ccc(Br)cc2)c1`, 7.42. With `O=S(=O)(Nc1ccc(Cl)cc1)c1ccc(Br)cc1` the figure was 8.24; with `O=S(=O)(Nc1ccc(Cl)cc1)c1ccccc1`, 8.75; with `O=S(=O)(Nc1ccccc1)c1ccc(Br)cc1`, 8.5. With `O=S(=O)(Nc1ccccc1)c1ccc(F)cc1` the figure was 8.9. With `Cc1ccc(S(=O)(=O)Nc2cccc([N+](=O)[O-])c2)cc1`, the pKa stood at 8.27. With `O=[N+]([O-])c1cccc(NS(=O)(=O)c2ccccc2)c1` the figure was 7.93; with `O=S(=O)(Nc1ccc(F)cc1)c1ccc(F)cc1`, 8.73; with `COc1ccc(S(=O)(=O)Nc2ccc(C)cc2)cc1`, 9.8. Under `O=[N+]([O-])c1ccc(S(=O)(=O)Nc2ccc(Cl)cc2)cc1` stands 6.24. Under `O=S(=O)(Nc1ccc(Cl)cc1)c1ccc(F)cc1` stands 8.61. On to `Cc1ccc(S(=O)(=O)Nc2ccccc2)cc1`, for which the pKa was 9.35. Under `Cc1ccc(NS(=O)(=O)c2cccc([N+](=O)[O-])c2)cc1` stands 7.8.
